Measurements from ChEMBL document CHEMBL4014328, “Piperazin-1-ylpyridazine Derivatives Are a Novel Class of Human dCTP Pyrophosphatase 1 Inhibitors” (J Med Chem, 2017).

Legend:
Stearoyl-CoA desaturase = biological target: T1, Stearoyl-CoA desaturase (Homo sapiens, UniProt O00767)
T1 sequence (O00767 whole entry): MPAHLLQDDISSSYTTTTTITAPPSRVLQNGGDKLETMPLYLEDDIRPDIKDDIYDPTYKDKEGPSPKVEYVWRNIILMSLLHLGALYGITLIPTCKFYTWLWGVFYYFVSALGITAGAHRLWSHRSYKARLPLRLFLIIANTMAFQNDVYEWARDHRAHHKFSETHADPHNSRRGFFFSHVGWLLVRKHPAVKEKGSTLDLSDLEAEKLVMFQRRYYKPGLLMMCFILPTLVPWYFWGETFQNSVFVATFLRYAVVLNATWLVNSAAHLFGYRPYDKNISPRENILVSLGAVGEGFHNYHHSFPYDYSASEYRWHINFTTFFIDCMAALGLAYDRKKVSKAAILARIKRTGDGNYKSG
Description: Inhibition of SCD1 in human HepG2 cells assessed as ratio of cellular protein product over substrate after 72 hrs

dCTP pyrophosphatase 1 = biological target: T2, dCTP pyrophosphatase 1 (Homo sapiens, UniProt Q9H773)
T2 sequence (Q9H773 whole entry): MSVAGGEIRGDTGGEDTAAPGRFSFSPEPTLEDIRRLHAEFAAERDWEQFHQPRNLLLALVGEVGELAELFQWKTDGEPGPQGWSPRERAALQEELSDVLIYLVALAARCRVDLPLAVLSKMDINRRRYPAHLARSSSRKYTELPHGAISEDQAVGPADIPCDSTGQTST
Description: Inhibition of human full length N-terminal His-tagged dCTPase expressed in Escherichia coli BL21(DE3) using dCTP as substrate by HTS-based malachite green assay

[1] = Drug uptake in human HL60 cells at 10 uM; assay type: ADME, cell-based; details: hl-60, 10 µM
[2] = Drug uptake in human MCF7 cells up to 20 uM; assay type: ADME, cell-based
HL-60 = assay: Synergistic cytotoxicity against human HL60 cells assessed as reduction in cell viability after 72 hrs in presence of 5-AzaC by Resazurin assay; assay type: functional
hTERT-BJ = assay: Cytotoxicity against human hTERT-BJ cells assessed as reduction in cell viability after 72 hrs by Resazurin assay; assay type: cell-based

SMILES	IC50 (dCTP pyrophosphatase 1)	also measured
Cc1nnc(-c2ccc(N3CCC(Oc4cc(F)ccc4Cl)CC3)nn2)o1	–	IC50 (Stearoyl-CoA desaturase): 670 nM
O=C(Nc1ccccc1)c1ccc(N2CCN(C(=O)c3ccccc3C(F)(F)F)CC2)nn1	> 10000 nM	–
O=C(NCc1ccccc1)c1ccc(N2CCN(C(=O)c3ccccc3C(F)(F)F)CC2)nn1	240 nM	–
C#CCNC(=O)c1ccc(N2CCN(S(=O)(=O)c3cccc(Cl)c3C)CC2)nn1	34 nM	–
Cc1ccccc1S(=O)(=O)N1CCN(c2ccc(C(=O)NCc3ccc(F)cc3)nn2)CC1	65 nM	Drug uptake [1]: > 50%; Drug uptake [2]: > 50%
Cc1ccccc1S(=O)(=O)N1CC2CC1CN2c1ccc(C(=O)NCc2ccccc2)nn1 (stereo not given)	1700 nM	–
Cc1ccccc1S(=O)(=O)N1CCN(c2ccc(S(=O)(=O)CCc3ccccc3)nn2)CC1	> 10000 nM	–
Cc1ccccc1S(=O)(=O)N1CCN(c2ccc(C(=O)NCc3ccccc3)nn2)CC1	170 nM	IC50 (Stearoyl-CoA desaturase): 19700 nM; CI (HL-60): <1; Activity (hTERT-BJ): Non-Toxic
O=C(NCc1ccccc1)c1ccc(N2CCN(S(=O)(=O)c3ccccc3F)CC2)nn1	350 nM	–
Cc1ccccc1[S+]([O-])C1CCN(c2ccc(C(=O)NCc3ccccc3)nn2)CC1 (stereo not given)	1100 nM	–
Cc1c(Cl)cccc1S(=O)(=O)N1CCN(c2ccc(C(=O)NCc3cccs3)nn2)CC1	19 nM	CI (HL-60): <1
Cc1ccccc1S(=O)(=O)N1CCCN(c2ccc(C(=O)NCc3ccccc3)nn2)CC1	3200 nM	–
Cc1ncccc1S(=O)(=O)N1CCN(c2ccc(C(=O)NCc3ccc(F)cc3)nn2)CC1	36 nM	Drug uptake [1]: > 50%; Activity (hTERT-BJ): Non-Toxic; Drug uptake [2]: > 50%
C=C(CCc1ccc(F)cc1)c1ccc(N2CCN(S(=O)(=O)c3ccccc3C)CC2)nn1	> 10000 nM	–
O=C(NCc1ccccc1)c1ccc(N2CCN(S(=O)(=O)c3ccccc3N3CCC(O)CC3)CC2)nn1	260 nM	–
O=C(NCc1ccc(F)cc1)c1ccc(N2CCN(S(=O)(=O)c3cccnc3Cl)CC2)nn1	25 nM	–
Cc1ccccc1S(=O)(=O)C1CCN(c2ccc(C(=O)NCc3ccccc3)nn2)CC1	530 nM	–
Cc1ccccc1S(=O)(=O)N1CCN(c2ccc(C3(CCc4ccc(F)cc4)COC3)nn2)CC1	> 10000 nM	–
O=C(NCc1ccccc1)c1ccc(N2CCN(S(=O)(=O)c3ccccc3C(F)(F)F)CC2)nn1	250 nM	–
CN(C)c1ccccc1S(=O)(=O)N1CCN(c2ccc(C(=O)NCc3ccccc3)nn2)CC1	502 nM	–
C#CCOC(=O)c1ccc(N2CCN(S(=O)(=O)c3ccccc3N3CCC(O)CC3)CC2)nn1	41 nM	Drug uptake [1]: > 50%; Activity (hTERT-BJ): Non-Toxic; Drug uptake [2]: > 50%
Cc1ccccc1S(=O)(=O)N1CCN(c2ccc(C(=O)CCc3ccc(F)cc3)nn2)CC1	258 nM	–
Cc1ccccc1S(=O)(=O)N1CCN(c2ccc(C(=O)NCc3cccs3)nn2)CC1	51 nM	CI (HL-60): <1
Cc1ccccc1S(=O)(=O)N1CCN(c2ccc(CNCc3ccccc3)nn2)CC1	> 10000 nM	–
Cc1ccccc1S(=O)(=O)N1CCN(c2ccc(C(=O)OCc3ccccc3)nn2)CC1	38 nM	–
Cc1ccccc1S(=O)(=O)N1CCN(c2ccc(C(CO)(CO)CCc3ccc(F)cc3)nn2)CC1	> 10000 nM	–
O=C(NCCc1ccccc1)c1ccc(N2CCN(C(=O)c3ccccc3C(F)(F)F)CC2)nn1	2800 nM	–
